In ChEMBL document CHEMBL5608180, “DNA G-quadruplexes in the genome of Trypanosoma cruzi as potential therapeutic targets for Chagas disease: Dithienylethene ligands as effective antiparasitic agents” (Eur J Med Chem, 2024):
Activity calls are given as the source filed them. The calls are words filed in the database; no cut-off is given here.

Key:
Trypanosoma cruzi [1] = assay: Antiparasitic activity against trypomastigote form of Trypanosoma cruzi SOL (MHOM/ES/2008/SOL; DTU V) assessed as inhibition of parasite growth incubated for 96 hrs followed by incubation in dark with resazurin for 4 to 6 hrs by resazurin dye based fluorescence analysis; assay type: functional, organism-based
Quadruplex DNA [2] = assay: Stabilization of Trypanosoma cruzi G-quadruplex MCr DNA (FAM-5'-GTGGAGGGGGAGGGTCATGGGG-3'-TAMRA) assessed as change in apparent melting temperature at 5 uM by FRET melting analysis; assay type: nucleic-acid assay
Quadruplex DNA [3] = assay: Stabilization of Trypanosoma cruzi G-quadruplex RCr DNA (FAM-5'-GGGGACGGGAATGGGGGTGCATGAGGGG-3'-TAMRA) at 10 uM by FRET melting analysis; assay type: nucleic-acid assay
[4] = Selectivity index, ratio of IC50 for cytotoxicity against human MRC5 cells to IC50 for antiparasitic activity against epimastigote form of Trypanosoma cruzi DA (TcI); assay type: toxicity, cell-based; details: read-out: Ratio IC50
Quadruplex DNA [5] = assay: Binding affinity to Trypanosoma cruzi G-quadruplex MCr DNA (FAM-5'-GTGGAGGGGGAGGGTCATGGGG-3'-TAMRA) assessed as decrease in absorption with shift to higher wavelength at 30 uM by UV-Vis spectrophotometric analysis; assay type: nucleic-acid assay
Quadruplex DNA [6] = assay: Stabilization of Trypanosoma cruzi G-quadruplex RCr DNA (FAM-5'-GGGGACGGGAATGGGGGTGCATGAGGGG-3'-TAMRA) assessed as change in apparent melting temperature at 5 uM by FRET melting analysis; assay type: nucleic-acid assay
dsDNA [7] = assay: Binding affinity to human duplex FdxT DNA (FAM-5'-TATAGCTAT-peg-TATAGCTATA-3'-TAMRA) at 5 uM by FRET melting analysis; assay type: nucleic-acid assay
Quadruplex DNA [8] = assay: Binding affinity to Trypanosoma cruzi G-quadruplex RCr DNA (FAM-5'-GGGGACGGGAATGGGGGTGCATGAGGGG-3'-TAMRA) assessed as increase in melting temperature at DNA:compound concentration ratio of 1:2 by CD melting assay; assay type: nucleic-acid assay
Trypanosoma cruzi [9] = assay: Antiparasitic activity against epimastigote form of Trypanosoma cruzi BM Lopez (TcIa) assessed as inhibition of parasite growth incubated for 96 hrs followed by incubation with resazurin for 4 to 6 hrs by resazurin dye based fluorescence analysis; assay type: functional, organism-based
Trypanosoma cruzi [10] = assay: Antiparasitic activity against epimastigote form of Trypanosoma cruzi DA (TcI) assessed as inhibition of parasite growth incubated for 96 hrs followed by incubation with resazurin for 4 to 6 hrs by resazurin dye based fluorescence analysis; assay type: functional, organism-based
[11] = Selectivity index, ratio of IC50 for cytotoxicity against human MRC5 cells to IC50 for antiparasitic activity against epimastigote form of Trypanosoma cruzi SOL (TcV); assay type: toxicity, cell-based; details: read-out: Ratio IC50
Trypanosoma cruzi [12] = assay: Antiparasitic activity against epimastigote form of Trypanosoma cruzi Y(TcII) assessed as inhibition of parasite growth incubated for 96 hrs followed by incubation with resazurin for 4 to 6 hrs by resazurin dye based fluorescence analysis; assay type: functional, organism-based
Quadruplex DNA [13] = assay: Stabilization of human proto-oncogene G-quadruplex MYC DNA (FAM-5'-TTGAGGGTGGGTAGGGTGGGTAA-3'-TAMRA) assessed as change in apparent melting temperature at 5 uM by FRET melting analysis; assay type: nucleic-acid assay
Trypanosoma cruzi [14] = assay: Antiparasitic activity against epimastigote form of Trypanosoma cruzi SOL(TcV) assessed as inhibition of parasite growth incubated for 96 hrs followed by incubation in dark with resazurin for 4 to 6 hrs by resazurin dye based fluorescence analysis; assay type: functional, organism-based
[15] = Selectivity index, ratio of IC50 for cytotoxicity against human MRC5 cells to IC50 for antiparasitic activity against epimastigote form of Trypanosoma cruzi Y (TcII); assay type: toxicity, cell-based; details: read-out: Ratio IC50
dsDNA [16] = assay: Binding affinity to double stranded ds26 DNA (unknown origin) assessed as decrease in absorbance with shift to lower wavelength at 30 uM by UV-Vis spectrophotometric analysis; assay type: nucleic-acid assay
Quadruplex DNA [17] = assay: Binding affinity to Trypanosoma cruzi G-quadruplex MCr DNA (FAM-5'-GTGGAGGGGGAGGGTCATGGGG-3'-TAMRA) assessed as broadening of imino proton signals at 1 equiv. by 1H-NMR analysis; assay type: nucleic-acid assay
Quadruplex DNA [18] = assay: Binding affinity to Trypanosoma cruzi G-quadruplex RCr DNA (FAM-5'-GGGGACGGGAATGGGGGTGCATGAGGGG-3'-TAMRA) assessed as decrease in absorption with shift to higher wavelength at 30 uM by UV-Vis spectrophotometric analysis; assay type: nucleic-acid assay
Quadruplex DNA [19] = assay: Stabilization of human telomere G-quadruplex F21T DNA (FAM-5'-GGGTTAGGGTTAGGGTTAGGG-3'-TAMRA) assessed as change in apparent melting temperature at 5 uM by FRET melting analysis; assay type: nucleic-acid assay
[20] = Cytotoxicity against human MRC5 cells; assay type: toxicity, cell-based
Quadruplex DNA [21] = assay: Binding affinity to Trypanosoma cruzi G-quadruplex TCr DNA (FAM-5'-GGGAGGGACGGATGGGCAGAAACGGG-3'-TAMRA) assessed as broadening of imino proton signals at 1 equiv. by 1H-NMR analysis; assay type: nucleic-acid assay
Trypanosoma cruzi [22] = assay: Potency index, ratio of Benznidazole IC50 to test compound IC50 for antiparasitic activity against trypomastigote form of Trypanosoma cruzi SOL (MHOM/ES/2008/SOL; DTU V) by resazurin dye based fluorescence analysis; assay type: functional
Quadruplex DNA [23] = assay: Binding affinity to Trypanosoma cruzi G-quadruplex MCr DNA (FAM-5'-GTGGAGGGGGAGGGTCATGGGG-3'-TAMRA) at DNA:compound concentration ratio of 1:1 to 1:2 by CD melting assay; assay type: nucleic-acid assay
Quadruplex DNA [24] = assay: Stabilization of Trypanosoma cruzi G-quadruplex TCr DNA (FAM-5'-GGGAGGGACGGATGGGCAGAAACGGG-3'-TAMRA) assessed as change in apparent melting temperature at 5 uM by FRET melting analysis; assay type: nucleic-acid assay
[25] = Selectivity index, ratio of IC50 for cytotoxicity against human MRC5 cells to IC50 for antiparasitic activity against trypomastigote form of Trypanosoma cruzi SOL (TcV); assay type: toxicity, cell-based; details: read-out: Ratio IC50
Quadruplex DNA [26] = assay: Binding affinity to Trypanosoma cruzi G-quadruplex RCr DNA (FAM-5'-GGGGACGGGAATGGGGGTGCATGAGGGG-3'-TAMRA) assessed as broadening of imino proton signals with delta shift at 1 equiv. by 1H-NMR analysis; assay type: nucleic-acid assay
Quadruplex DNA [27] = assay: Stabilization of Trypanosoma cruzi G-quadruplex RCr DNA (FAM-5'-GGGGACGGGAATGGGGGTGCATGAGGGG-3'-TAMRA) at 5 uM in presence of 1 to 10 uM double stranded ds26 DNA by FRET melting analysis; assay type: nucleic-acid assay
[28] = Selectivity index, ratio of IC50 for cytotoxicity against human MRC5 cells to IC50 for antiparasitic activity against epimastigote form of Trypanosoma cruzi BM Lopez (TcIa); assay type: toxicity, cell-based; details: read-out: Ratio IC50
Quadruplex DNA [29] = assay: Stabilization of human telomere G-quadruplex F21T DNA (FAM-5'-GGGTTAGGGTTAGGGTTAGGG-3'-TAMRA) at 5 uM in presence of 1 to 10 uM double stranded ds26 DNA by FRET melting analysis; assay type: nucleic-acid assay
Quadruplex DNA [30] = assay: Binding affinity to Trypanosoma cruzi G-quadruplex RCr DNA (FAM-5'-GGGGACGGGAATGGGGGTGCATGAGGGG-3'-TAMRA) assessed as decrease in absorption with shift to higher wavelength at 25 uM by UV-Vis spectrophotometric analysis; assay type: nucleic-acid assay
Quadruplex DNA [31] = assay: Binding affinity to Trypanosoma cruzi G-quadruplex MCr DNA (FAM-5'-GTGGAGGGGGAGGGTCATGGGG-3'-TAMRA) assessed as decrease in absorption with shift to higher wavelength at 25 uM by UV-Vis spectrophotometric analysis; assay type: nucleic-acid assay
[32] = Drug uptake in epimastigote form of Trypanosoma cruzi BM Lopez at 20 uM measured after 2 hrs by fluorescence microscopy; assay type: ADME
dsDNA [33] = assay: Binding affinity to double stranded ds26 DNA (unknown origin) assessed as decrease in absorbance with shift to lower wavelength at 25 uM by UV-Vis spectrophotometric analysis; assay type: nucleic-acid assay
[34] = Drug uptake in epimastigote form of Trypanosoma cruzi BM Lopez assessed as localization in kinetoplast and nucleus at 20 uM measured after 4 hrs by fluorescence microscopy; assay type: ADME
[35] = Drug uptake in epimastigote form of Trypanosoma cruzi BM Lopez assessed as localization in kinetoplast and nucleus at 20 uM measured after 24 hrs by fluorescence microscopy; assay type: ADME

| Structure (SMILES) | IC50 (Trypanosoma cruzi [1]) [µM] | ΔTm (Quadruplex DNA [2]) [°C] | Activity (Quadruplex DNA [3]) | selectivity ratio [4] | ΔTm (Quadruplex DNA [6]) [°C] | Activity (dsDNA [7]) | ΔTm (Quadruplex DNA [8]) [°C] | IC50 (Trypanosoma cruzi [9]) [µM] | IC50 (Trypanosoma cruzi [10]) [µM] | selectivity ratio [11] | IC50 (Trypanosoma cruzi [12]) [µM] | ΔTm (Quadruplex DNA [13]) [°C] | IC50 (Trypanosoma cruzi [14]) [µM] | selectivity ratio [15] | Activity (Quadruplex DNA [17]) | ΔTm (Quadruplex DNA [19]) [°C] | IC50 [20] [µM] | Activity (Quadruplex DNA [21]) | Ratio IC50 (Trypanosoma cruzi [22]) | Activity (Quadruplex DNA [23]) | further results |
| --- | --- | --- | --- | --- | --- | --- | --- | --- | --- | --- | --- | --- | --- | --- | --- | --- | --- | --- | --- | --- | --- |
| C[C@]12SC(c3ccc4cccnc4c3)=CC1=C1CCCC1=C1C=C(c3ccc4cccnc4c3)S[C@@]12C | 3.3 | 14 | Active | 4 | 17 | inactive | 3.81 | 40.7 | 20.6 | 3.7 | 20.9 | 17 | 22.3 | 3.9 | Active | 17 | 82.5 | Active | 17 | Active | Activity (Quadruplex DNA [5]): Active; Activity (dsDNA [16]): inactive; Activity (Quadruplex DNA [18]): Active; ΔTm (Quadruplex DNA [24]): 17 °C; selectivity ratio [25]: 25; Activity (Quadruplex DNA [26]): Active; Activity (Quadruplex DNA [27]): Active; selectivity ratio [28]: 2; Activity (Quadruplex DNA [29]): Active |
| Cc1sc(-c2cccc3cc[n+](C)cc23)cc1C1=C(c2cc(-c3cccc4cc[n+](C)cc34)sc2C)CCC1.[I-].[I-] | 1.5 | 14 | Active | 2.9 | 17 | inactive | 6.98 | 30.1 | 21.2 | 2.9 | 19.5 | 17 | 20.8 | 3.1 | Active | 17 | 61.4 | Active | 38 | Active | Activity (Quadruplex DNA [30]): Active; Activity (Quadruplex DNA [31]): Active; Drug uptake [32]: Active; ΔTm (Quadruplex DNA [24]): 17 °C; selectivity ratio [25]: 40.9; Activity (dsDNA [33]): inactive; Activity (Quadruplex DNA [26]): Active; Drug uptake [34]: Active; Drug uptake [35]: Active; Activity (Quadruplex DNA [27]): Active; selectivity ratio [28]: 2; Activity (Quadruplex DNA [29]): Active |
